Data set [1] concerns Plasmodium falciparum. The data set can be described thus: Antimalarial activity against Plasmodium falciparum FCR3 infected in human erythrocytes by Giemsa staining analysis. The class given is functional, organism-based.
The next data set relates to bovine liver DHFR. As to the kind of experiment: Therapeutic index, ratio of IC50 for African green monkey Vero cells to IC50 for bovine liver DHFR. The class given is toxicity. Particulars: read-out: Ratio IC50.
The subject of data set [2] is Plasmodium falciparum. As to the kind of experiment: Antiplasmodial activity against Plasmodium falciparum infected in human RBC […] by MTT assay. The class given is functional, organism-based. Background: Formazan colour is commonly taken as a measure of viable cells.
Another data set relates to Erythrocyte. The data set can be described thus: Cytotoxicity against human RBC assessed as reduction in cell viability by MTT assay. The class given is cell-based.
A further data set concerns the target T1, Dihydrofolate reductase (Bos taurus, UniProt P00376).
T1 sequence (P00376 whole entry): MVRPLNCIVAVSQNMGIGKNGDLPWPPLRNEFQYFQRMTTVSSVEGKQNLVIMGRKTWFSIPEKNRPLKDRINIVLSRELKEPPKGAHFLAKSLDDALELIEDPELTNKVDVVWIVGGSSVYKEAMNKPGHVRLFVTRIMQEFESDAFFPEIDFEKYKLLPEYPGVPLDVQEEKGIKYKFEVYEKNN
As to the kind of experiment: Inhibition of bovine liver DHFR using FH2 as substrate incubated for 2 mins followed by substrate addition.

The test system of the next data set is Vero. The data set can be described thus: Cytotoxicity against African green monkey Vero cells assessed as reduction in cell viability incubated for 72 hrs by CellTiter 96 Non-radioactive Cell Proliferation Assay. To be noted: Chlorocebus sabaeus. The class given is cell-based.
The subject of data set [3] is Plasmodium falciparum. The data set can be described thus: Antiplasmodial activity against Plasmodium falciparum infected in human RBC assessed as reduction in parasite LDH activity by spectrophotometric assay. The class given is functional, organism-based.
A short description of data set [4]: Therapeutic index, ratio of CC50 for human RBC to EC50 for Plasmodium falciparum infected in human RBC. Particulars: human red blood cells (RBC), read-out: Ratio CC50/EC50. The class given is toxicity.

Molecules are shown by their SMILES. ≈ marks a conversion by molar mass, not a printed value.

In the data set on Plasmodium falciparum [1], `CC(=O)Nc1ccc(S(=O)(=O)NC(Cc2ccccc2)c2nc3ccccc3c(=O)n2/N=C/c2cccc([N+](=O)[O-])c2)cc1` (centres undefined) showed an IC50 of 1.12 µg/mL (≈ 1.83 µM).
In the case of `CC(=O)Nc1ccc(S(=O)(=O)NC(Cc2ccccc2)c2nc3ccccc3c(=O)n2/N=C/c2cccc(F)c2)cc1` (centres undefined), the selectivity ratio in the data set with bovine liver DHFR is 517; in data set [4], 20.6. The IC50 was 0.084 µg/mL (≈ 0.144 µM) in the data set on Plasmodium falciparum [1], 49.7 nM against Dihydrofolate reductase, 15 µg/mL (≈ 25.7 µM) with Vero and 4672 ppm with Plasmodium falciparum [3]. In the data set on Plasmodium falciparum [2], this compound yielded an EC50 of 2831 ppm. Moreover, in the data set on Erythrocyte, the CC50 stood at 58408 ppm.
In the case of `CC(=O)Nc1ccc(S(=O)(=O)NC(Cc2ccccc2)c2nc3ccccc3c(=O)n2/N=C/c2ccc(C)cc2)cc1` (centres undefined), the selectivity ratio worked out at 273 with bovine liver DHFR and 1670 in data set [4]. Also, the IC50 in the data set with Plasmodium falciparum [1] was 0.067 µg/mL (≈ 0.116 µM); against Dihydrofolate reductase, 94.9 nM; in the data set with Vero, 15 µg/mL (≈ 25.9 µM); in the data set with Plasmodium falciparum [3], 8432 ppm. Further, the EC50 in the data set on Plasmodium falciparum [2] is given as 1106 ppm.
The compound `CC(=O)Nc1ccc(S(=O)(=O)NC(Cc2ccccc2)c2nc3ccccc3c(=O)n2/N=C/c2ccccc2C)cc1` (centres undefined) showed an IC50 with Plasmodium falciparum [1] of 1.26 µg/mL (≈ 2.17 µM).
As to `CC(=O)Nc1ccc(S(=O)(=O)NC(Cc2ccccc2)c2nc3ccccc3c(=O)n2/N=C/c2cccc(Br)c2)cc1` (centres undefined), the IC50 with Plasmodium falciparum [1] was determined as 0.92 µg/mL (≈ 1.43 µM).
Still for that read-out and setting: next, `CC(=O)Nc1ccc(S(=O)(=O)NC(Cc2ccccc2)c2nc3ccccc3c(=O)n2/N=C/c2ccc(Cl)cc2)cc1` (centres undefined): 0.84 µg/mL (≈ 1.4 µM).
Take `CC(=O)Nc1ccc(S(=O)(=O)NC(Cc2ccccc2)c2nc3ccccc3c(=O)n2/N=C/c2ccc(Br)cc2)cc1` (centres undefined): the selectivity ratio with bovine liver DHFR amounted to 181; in data set [4] it was 91.5. Also, the IC50 was 0.092 µg/mL (≈ 0.143 µM) in the data set with Plasmodium falciparum [1], 129 nM at Dihydrofolate reductase, 15 µg/mL (≈ 23.3 µM) in the data set with Vero and 96.38 ppm in the data set with Plasmodium falciparum [3]. Also, the EC50 in the data set on Plasmodium falciparum [2] was 115.61 ppm. For the same compound, in the data set with Erythrocyte, the CC50 came to 10575 ppm.
In turn, `COc1ccccc1/C=N/n1c(C(Cc2ccccc2)NS(=O)(=O)c2ccc(NC(C)=O)cc2)nc2ccccc2c1=O` (centres undefined) registered an IC50 with Plasmodium falciparum [1] of 1.05 µg/mL (≈ 1.77 µM).
Same read-out and setting: next, `CC(=O)Nc1ccc(S(=O)(=O)NC(Cc2ccccc2)c2nc3ccccc3c(=O)n2/N=C/c2ccc(O)cc2)cc1` (centres undefined): 0.68 µg/mL (≈ 1.17 µM); `COc1cccc(/C=N/n2c(C(Cc3ccccc3)NS(=O)(=O)c3ccc(NC(C)=O)cc3)nc3ccccc3c2=O)c1` (centres undefined): 1.01 µg/mL (≈ 1.7 µM).
For `COc1ccc(/C=N/n2c(C(Cc3ccccc3)NS(=O)(=O)c3ccc(NC(C)=O)cc3)nc3ccccc3c2=O)cc1` (centres undefined), in the data set with Plasmodium falciparum [1], the IC50 amounted to 0.72 µg/mL (≈ 1.21 µM).
Same read-out and setting: with `CC(=O)Nc1ccc(S(=O)(=O)NC(Cc2ccccc2)c2nc3ccccc3c(=O)n2/N=C/c2ccccc2F)cc1` (centres undefined) the figure was 1.28 µg/mL (≈ 2.19 µM).
Still for that read-out and setting: with `CC(=O)Nc1ccc(S(=O)(=O)NC(Cc2ccccc2)c2nc3ccccc3c(=O)n2/N=C/c2ccccc2)cc1` (centres undefined) the figure was 1.28 µg/mL (≈ 2.26 µM).
For `CC(=O)Nc1ccc(S(=O)(=O)NC(Cc2ccccc2)c2nc3ccccc3c(=O)n2/N=C/c2ccccc2Cl)cc1` (centres undefined), in the data set on Plasmodium falciparum [1], the IC50 was determined as 0.72 µg/mL (≈ 1.2 µM).
The same measure, in the same setting: next, `CC(=O)Nc1ccc(S(=O)(=O)NC(Cc2ccccc2)c2nc3ccccc3c(=O)n2/N=C/c2ccccc2[N+](=O)[O-])cc1` (centres undefined): 1.52 µg/mL (≈ 2.49 µM).
As for `CC(=O)Nc1ccc(S(=O)(=O)NC(Cc2ccccc2)c2nc3ccccc3c(=O)n2/N=C/c2ccc(F)cc2)cc1` (centres undefined), the selectivity ratio in the data set with bovine liver DHFR amounted to 417; in data set [4] it was 15.4. Besides, the IC50 in the data set with Plasmodium falciparum [1] was 0.067 µg/mL (≈ 0.115 µM); on Dihydrofolate reductase it was 61.7 nM; in the data set with Vero, 15 µg/mL (≈ 25.7 µM); in the data set with Plasmodium falciparum [3], 3402 ppm. This compound also registered an EC50 with Plasmodium falciparum [2] of 1909 ppm. Further, the CC50 with Erythrocyte turned out to be 29330 ppm.
In turn, `CC(=O)Nc1ccc(S(=O)(=O)NC(Cc2ccccc2)c2nc3ccccc3c(=O)n2/N=C/c2ccccc2O)cc1` (centres undefined) displayed an IC50 in the data set on Plasmodium falciparum [1] of 0.78 µg/mL (≈ 1.34 µM).
The same measure, in the same setting: with `CC(=O)Nc1ccc(S(=O)(=O)NC(Cc2ccccc2)c2nc3ccccc3c(=O)n2/N=C/c2cccc(O)c2)cc1` (centres undefined) the figure was 1.24 µg/mL (≈ 2.13 µM).
For `CC(=O)Nc1ccc(S(=O)(=O)NC(Cc2ccccc2)c2nc3ccccc3c(=O)n2/N=C/c2ccc([N+](=O)[O-])cc2)cc1` (centres undefined), the IC50 in the data set on Plasmodium falciparum [1] came out at 0.72 µg/mL (≈ 1.18 µM).
For `CC(=O)Nc1ccc(S(=O)(=O)NC(Cc2ccccc2)c2nc3ccccc3c(=O)n2/N=C/c2cccc(Cl)c2)cc1` (centres undefined), the selectivity ratio in the data set on bovine liver DHFR was found to be 306; in data set [4] it was 51.1. The IC50 in the data set on Plasmodium falciparum [1] is 0.082 µg/mL (≈ 0.137 µM); against Dihydrofolate reductase, 81.7 nM; in the data set with Vero, 15 µg/mL (≈ 25 µM); with Plasmodium falciparum [3] it was 524.8 ppm. In the data set on Plasmodium falciparum [2], this compound had an EC50 of 368.97 ppm. In addition, the CC50 in the data set with Erythrocyte was 18850 ppm.
In the data set on Plasmodium falciparum [1], `CC(=O)Nc1ccc(S(=O)(=O)NC(Cc2ccccc2)c2nc3ccccc3c(=O)n2/N=C/c2ccccc2Br)cc1` (centres undefined) came in with an IC50 of 0.7 µg/mL (≈ 1.09 µM).
`CC(=O)Nc1ccc(S(=O)(=O)NC(Cc2ccccc2)c2nc3ccccc3c(=O)n2/N=C/c2cccc(C)c2)cc1` (centres undefined): in the data set with Plasmodium falciparum [1], the IC50 came out at 0.78 µg/mL (≈ 1.35 µM).
Turning to `CCN(CC)CCCC(C)Nc1ccnc2cc(Cl)ccc12` (centres undefined) [CHLOROQUINE], the EC50 in the data set with Plasmodium falciparum [2] is recorded as 28.97 ppm. In addition, in the data set on Erythrocyte, the CC50 came out at 466.66 ppm.
`C=C[C@H]1CN2CC[C@H]1C[C@H]2[C@H](O)c1ccnc2ccc(OC)cc12` [QUININE] returned an IC50 with Plasmodium falciparum [1] of 0.268 µg/mL (≈ 0.826 µM).

Values taken from ChEMBL document CHEMBL4334450, “Green synthesis, biological evaluation, molecular docking studies and 3D-QSAR analysis of novel phenylalanine linked quinazoline-4(3H)-one-sulphonamide hybrid entities distorting the malarial reductase activity in folate pathway” (Bioorg Med Chem, 2019).
